What was measured:
Format in all cases: functional, cell-based
MG-63 = experiment: Cytotoxicity against human MG63 cells by MTT colorimetric method
A549 = experiment: Cytotoxicity against human A549 cells by MTT colorimetric method
LoVo = experiment: Cytotoxicity against human LoVo cells by MTT colorimetric method

| SMILES | IC50 (MG-63) | IC50 (A549) | IC50 (LoVo) |
| --- | --- | --- | --- |
| COc1cc(OC)c2c(c1)C(=O)[C@@H]1C[C@@H](O)C[C@@]2(O)[C@@H]1CO | > 97400 nM | > 97400 nM | > 97400 nM |
| COc1cccc2c1C(=O)c1c(O)c3c(c(O)c1C2=O)C[C@@](O)(C(=O)CO)C[C@@H]3O[C@H]1C[C@H](N)[C@H](O)[C@H](C)O1 [DOXORUBICIN] | 2700 nM |  | 2700 nM |

Reference: ChEMBL document CHEMBL2150860, “Herbarone, a rearranged heptaketide derivative from the sea hare associated fungus Torula herbarum” (J Nat Prod, 2012)
